Laboratory results: patent US12286429B2, “5-oxo-1,2,3,5,8,8a-hexahydroindolizine-3-carboxamide derivatives useful as a factor XIa inhibitors” (Janssen Pharmaceutica NV, priority 2021, dated 2025)
pIC50: −log10 of the molar value.

Legend:
[1] = molecular target: human plasma kallikrein (Homo sapiens, UniProt P03952); experiment: Kallikrein inhibition assay utilizing a quenched AMC peptide substrate (FLINT); format: biochemical; details: 11-point, 3-fold serial dilution, top 1 μM; 30 min preincubation; 2 nM kallikrein; 50 μM Z-Gly-Pro-Arg-AMC; kinetic reads over 30 min
Outline: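 Human plasma kallikrein (2 nM final) was pre-incubated 30 min at room temperature with compound (11-point 3-fold series, top 1 μM, 2% DMSO) in Tris pH 7.5, NaCl, CaCl2, BSA, CHAPS buffer. Reaction started with 50 μM Z-Gly-Pro-Arg-AMC (KM 40 μM), and fluorescence (340/440 nm) was read kinetically over 30 min. IC50 came from a 4-parameter logistic fit.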

[2] = molecular target: Factor XIa (Homo sapiens, UniProt P03951); experiment: Factor XIa inhibition assay utilizing a fluorophore-quencher pair peptide substrate (FLINT); format: biochemical; details: 11-point, 3-fold serial dilution, top 100 nM; 30 min preincubation; 15 μM 5Fam-KLTRAETV-K5Tamra substrate; kinetic reads over 30 min; read-out: FXIa Inhibition IC50
Outline: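 FXIa ([…]) preincubated 30 min with compound (11-point, 3-fold, top 100 nM, 2% DMSO) in Tris pH 7.5, NaCl, CaCl2, BSA, CHAPS; 15 μM 5Fam-KLTRAETV-K5Tamra substrate then added. Fluorescence (485/520 nm) read kinetically over 30 min at room temperature; IC50 by 4-parameter fit.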

Chain of human plasma kallikrein (P03952 391-638 limits assumed): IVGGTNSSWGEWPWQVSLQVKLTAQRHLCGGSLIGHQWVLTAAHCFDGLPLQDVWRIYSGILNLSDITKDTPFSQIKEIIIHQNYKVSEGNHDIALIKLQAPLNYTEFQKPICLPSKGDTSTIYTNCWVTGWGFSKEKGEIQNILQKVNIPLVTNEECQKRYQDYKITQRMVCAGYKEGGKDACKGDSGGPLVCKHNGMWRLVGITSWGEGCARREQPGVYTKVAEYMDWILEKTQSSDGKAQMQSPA
Chain of human plasma kallikrein (P03952 20-390 partner limits assumed): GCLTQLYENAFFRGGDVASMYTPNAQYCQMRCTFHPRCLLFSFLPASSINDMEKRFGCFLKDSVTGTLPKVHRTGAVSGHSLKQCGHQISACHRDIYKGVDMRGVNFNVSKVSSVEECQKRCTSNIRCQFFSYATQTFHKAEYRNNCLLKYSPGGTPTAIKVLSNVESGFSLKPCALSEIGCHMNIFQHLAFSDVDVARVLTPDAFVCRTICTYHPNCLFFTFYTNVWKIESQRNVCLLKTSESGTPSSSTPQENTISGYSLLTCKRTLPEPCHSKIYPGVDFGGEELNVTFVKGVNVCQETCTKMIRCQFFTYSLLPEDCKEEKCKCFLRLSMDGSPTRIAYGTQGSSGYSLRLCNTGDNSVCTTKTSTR
Chain of Factor XIa (P03951 388-625 limits assumed): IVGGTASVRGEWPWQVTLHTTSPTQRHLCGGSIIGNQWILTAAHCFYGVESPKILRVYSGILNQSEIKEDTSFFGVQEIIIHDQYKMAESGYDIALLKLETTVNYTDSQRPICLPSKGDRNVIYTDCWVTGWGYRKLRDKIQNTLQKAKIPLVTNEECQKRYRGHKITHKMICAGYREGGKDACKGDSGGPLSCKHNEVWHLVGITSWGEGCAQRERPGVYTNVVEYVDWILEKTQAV
Chain of Factor XIa (P03951 19-387 partner limits assumed): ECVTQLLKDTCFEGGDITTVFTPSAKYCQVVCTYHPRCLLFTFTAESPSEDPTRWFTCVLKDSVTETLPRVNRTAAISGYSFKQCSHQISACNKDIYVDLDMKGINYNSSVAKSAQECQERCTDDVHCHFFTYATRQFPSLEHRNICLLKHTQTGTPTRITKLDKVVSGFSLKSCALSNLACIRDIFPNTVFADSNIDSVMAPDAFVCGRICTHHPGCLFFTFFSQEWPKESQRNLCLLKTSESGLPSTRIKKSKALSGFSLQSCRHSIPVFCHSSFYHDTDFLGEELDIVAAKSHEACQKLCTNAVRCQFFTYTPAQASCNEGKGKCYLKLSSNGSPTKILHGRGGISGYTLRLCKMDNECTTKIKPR

SMILES	pIC50 [1]	pIC50 [2]
CC1(C)C[C@@H](C(=O)Nc2ccc3nccnc3c2)N2C(=O)C=C(c3c(-n4cnnn4)ccc(Cl)c3F)CC21 (single isomer, unassigned) [ID No. 59, (3S,8aR*)-7-[3-Chloro-2-fluoro-6-(tetrazol-1-yl)phenyl]-1,1-dimethyl-5-oxo-N-quinoxalin-6-yl-2,3,8,8a-tetrahydroindolizine-3-carboxamide]	7.41	7.08
Nc1noc2cc(NC(=O)[C@@H]3CCC4CC(c5c(-n6cnnn6)ccc(Cl)c5F)=CC(=O)N43)ccc12 (single isomer, unassigned) [ID No. 60, (3S,8aR*)—N-(3-Amino-1,2-benzoxazol-6-yl)-7-[3-chloro-2-fluoro-6-(tetrazol-1-yl)phenyl]-5-oxo-2,3,8,8a-tetrahydro-1H-indolizine-3-carboxamide]	7.53	8.17
Nc1noc2cc(NC(=O)[C@@H]3CCC4CC(c5c(-n6cnnn6)ccc(Cl)c5F)=CC(=O)N43)ccc12 (single isomer, unassigned) [ID No. 61, (3S,8aS*)—N-(3-Amino-1,2-benzoxazol-6-yl)-7-[3-chloro-2-fluoro-6-(tetrazol-1-yl)phenyl]-5-oxo-2,3,8,8a-tetrahydro-1H-indolizine-3-carboxamide]	7.28	8.05
CC1(C)C[C@@H](C(=O)Nc2ccc3nccnc3c2)N2C(=O)C=C(c3c(-n4cnnn4)ccc(Cl)c3F)CC21 (single isomer, unassigned) [ID No. 62, (3S,8aS*)-7-[3-Chloro-2-fluoro-6-(tetrazol-1-yl)phenyl]-1,1-dimethyl-5-oxo-N-quinoxalin-6-yl-2,3,8,8a-tetrahydroindolizine-3-carboxamide]	7.76	7.88
O=C(Nc1ccc(-c2nc(=O)o[nH]2)cc1)[C@@H]1CCC2CC(c3c(-n4cnnn4)ccc(Cl)c3F)=CC(=O)N21 (single isomer, unassigned) [ID No. 63, (3S,8aR*)-7-[3-Chloro-2-fluoro-6-(tetrazol-1-yl)phenyl]-5-oxo-N-[4-(5-oxo-2H-1,2,4-oxadiazol-3-yl)phenyl]-2,3,8,8a-tetrahydro-1H-indolizine-3-carboxamide]	7.69	9.22
O=C(Nc1ccc(-c2nnn[nH]2)cc1)[C@@H]1CC[C@H]2CC(c3c(-n4cnnn4)ccc(Cl)c3F)=CC(=O)N21 (single isomer, unassigned) [ID No. 65, (3S,8aS*)-7-[3-Chloro-2-fluoro-6-(tetrazol-1-yl)phenyl]-5-oxo-N-[4-(1H-tetrazol-5-yl)phenyl]-2,3,8,8a-tetrahydro-1_H-indolizine-3-carboxamide]	7.44	8.72
O=C(Nc1ccc(-c2nnn[nH]2)cc1)[C@@H]1CCC2CC(c3c(-n4cnnn4)ccc(Cl)c3F)=CC(=O)N21 (single isomer, unassigned) [ID No. 66, (3S,8aR*)-7-[3-Chloro-2-fluoro-6-(tetrazol-1-yl)phenyl]-5-oxo-N-[4-(1H-tetrazol-5-yl)phenyl]-2,3,8,8a-tetrahydro-1H-indolizine-3-carboxamide]	7.72	9.10
C[C@H]1C[C@@H](C(=O)Nc2ccc3nccnc3c2)N2C(=O)C=C(c3c(-n4cnnn4)ccc(Cl)c3F)C[C@@H]12 (single isomer, unassigned) [ID No. 79, (1S*,3S,8aS*)-7-[3-Chloro-2-fluoro-6-(tetrazol-1-yl)phenyl]-1-methyl-5-oxo-N-quinoxalin-6-yl-2,3,8,8a-tetrahydro-1H-indolizine-3-carboxamide]	8.12	8.41
C[C@H]1C[C@@H](C(=O)Nc2ccc3nccnc3c2)N2C(=O)C=C(c3c(-n4cnnn4)ccc(Cl)c3F)C[C@H]12 (single isomer, unassigned) [ID No. 80, (1S*,3S,8aR*)-7-[3-Chloro-2-fluoro-6-(tetrazol-1-yl)phenyl]-1-methyl-5-oxo-N-quinoxalin-6-yl-2,3,8,8a-tetrahydro-1H-indolizine-3-carboxamide]	7.23	7.34
Nc1ccc2cc(NC(=O)[C@@H]3CC[C@@H]4CC(c5c(-n6cnnn6)ccc(Cl)c5F)=CC(=O)N43)ccc2n1 [ID No. 6, (3S,8aR)—N-(2-Aminoquinolin-6-yl)-7-(3-chloro-2-fluoro-6-(1H-tetrazol-1-yl)phenyl)-5-oxo-1,2,3,5,8,8a-hexahydroindolizine-3-carboxamide]	7.84	8.10
CC1(C)C(=O)Nc2ccc(NC(=O)[C@@H]3CC[C@@H]4CC(c5c(-n6cnnn6)ccc(Cl)c5F)=CC(=O)N43)cc21 [ID No. 7, (3S,8aR)-7-(3-Chloro-2-fluoro-6-(1H-tetrazol-1-yl)phenyl)-N-(3,3-dimethyl-2-oxoindolin-5-yl)-5-oxo-1,2,3,5,8,8a-hexahydroindolizine-3-carboxamide]	6.88	7.19
O=C(Nc1ccc2c(c1)C1(CCCC1)C(=O)N2)[C@@H]1CC[C@@H]2CC(c3c(-n4cnnn4)ccc(Cl)c3F)=CC(=O)N21 [ID No. 8, (3S,8aR)-7-(3-Chloro-2-fluoro-6-(1H-tetrazol-1-yl)phenyl)-5-oxo-N-(2′-oxospiro[cyclopentane-1,3′-indolin]-5′-yl)-1,2,3,5,8,8a-hexahydroindolizine-3-carboxamide]	6.75	7.21
O=C(Nc1ccc2nccc(O)c2c1)[C@@H]1CC[C@@H]2CC(c3c(-n4cnnn4)ccc(Cl)c3F)=CC(=O)N21 [ID No. 9, (3S,8aR)-7-(3-Chloro-2-fluoro-6-(1H-tetrazol-1-yl)phenyl)-N-(4-hydroxyquinolin-6-yl)-5-oxo-1,2,3,5,8,8a-hexahydroindolizine-3-carboxamide]	7.69	7.78
O=C(Nc1ccc2ncc(F)cc2c1)[C@@H]1CC[C@@H]2CC(c3c(-n4cnnn4)ccc(Cl)c3F)=CC(=O)N21 [ID No. 10, (3S,8aR)-7-(3-Chloro-2-fluoro-6-(1H-tetrazol-1-yl)phenyl)-N-(3-fluoroquinolin-6-yl)-5-oxo-1,2,3,5,8,8a-hexahydroindolizine-3-carboxamide]	7.65	7.97
CN(C)c1ccc2cc(NC(=O)[C@@H]3CC[C@@H]4CC(c5c(-n6cnnn6)ccc(Cl)c5F)=CC(=O)N43)ccc2n1 [ID No. 11, (3S,8aR)-7-(3-Chloro-2-fluoro-6-(1H-tetrazol-1-yl)phenyl)-N-(2-(dimethylamino)quinolin-6-yl)-5-oxo-1,2,3,5,8,8a-hexahydroindolizine-3-carboxamide]	7.18	7.41
O=C1Cc2cc(NC(=O)[C@@H]3CC[C@@H]4CC(c5c(-n6cnnn6)ccc(Cl)c5F)=CC(=O)N43)ccc2N1 [ID No. 12, (3S,8aR)-7-(3-Chloro-2-fluoro-6-(1H-tetrazol-1-yl)phenyl)-5-oxo-N-(2-oxoindolin-5-yl)-1,2,3,5,8,8a-hexahydroindolizine-3-carboxamide]	7.14	7.74
O=C1CCc2cc(NC(=O)[C@@H]3CC[C@@H]4CC(c5c(-n6cnnn6)ccc(Cl)c5F)=CC(=O)N43)ccc2N1 [ID No. 13]	7.16	7.89
CCn1cnc2ccc(NC(=O)[C@@H]3CC[C@@H]4CC(c5c(-n6cnnn6)ccc(Cl)c5F)=CC(=O)N43)cc2c1=O [ID No. 14, (3S,8aR)-7-(3-Chloro-2-fluoro-6-(1H-tetrazol-1-yl)phenyl)-N-(3-ethyl-4-oxo-3,4-dihydroquinazolin-6-yl)-5-oxo-1,2,3,5,8,8a-hexahydroindolizine-3-carboxamide]	7.22	7.64
